The NIST ThermoML archive (doi:10.1021/je200213h)
± gives the expanded uncertainty stated by the source.

How the values were obtained:
[1] = 101.33 kPa, Liquid, Capillary tube (Ostwald / Ubbelohde) method
[2] = xn = mol fraction of the nth substance listed; conditions: 101 kPa, Liquid, Capillary tube (Ostwald / Ubbelohde) method

CC(C)CCl [1-chloro-2-methylpropane]
[1]
Conditions | kinematic viscosity [m2/s]
283.15 K | 5.8e-07 ± 4.9e-09
298.15 K | 4.929e-07 ± 4.2e-09
313.15 K | 4.363e-07 ± 3.8e-09

CCCCCl [1-chlorobutane]
[1]
Conditions | kinematic viscosity [m2/s]
283.15 K | 5.564e-07 ± 4.7e-09
298.15 K | 4.785e-07 ± 4.1e-09
313.15 K | 4.216e-07 ± 3.7e-09

CCC(C)(C)C [2,2-dimethylbutane]
[1]
Conditions | kinematic viscosity [m2/s]
283.15 K | 6.234e-07 ± 5.2e-09
298.15 K | 5.206e-07 ± 4.4e-09
313.15 K | 4.579e-07 ± 4e-09

CC(C)(C)Cl [2-chloro-2-methylpropane]
[1]
Conditions | kinematic viscosity [m2/s]
283.15 K | 6.992e-07 ± 5.7e-09
298.15 K | 5.696e-07 ± 4.8e-09
313.15 K | 4.77e-07 ± 4.1e-09

CCC(C)Cl (stereo not drawn) [2-chlorobutane]
[1]
Conditions | kinematic viscosity [m2/s]
283.15 K | 5.237e-07 ± 4.5e-09
298.15 K | 4.603e-07 ± 4e-09
313.15 K | 4.049e-07 ± 3.6e-09

CCC(C)Cl (stereo not drawn) [2-chlorobutane] + CCCCCC
kinematic viscosity [m2/s], [2]
Conditions | 283.15 K | 298.15 K | 313.15 K
x1 = 0.0509 | 5.186e-07 ± 4.4e-09 | 4.579e-07 ± 4e-09 | 4.034e-07 ± 3.6e-09
x1 = 0.1002 | 5.147e-07 ± 4.4e-09 | 4.548e-07 ± 4e-09 | 4.012e-07 ± 3.6e-09
x1 = 0.1802 | 5.09e-07 ± 4.3e-09 | 4.501e-07 ± 3.9e-09 | 3.98e-07 ± 3.5e-09
x1 = 0.3029 | 5.025e-07 ± 4.3e-09 | 4.448e-07 ± 3.9e-09 | 3.948e-07 ± 3.5e-09
x1 = 0.4045 | 4.989e-07 ± 4.3e-09 | 4.42e-07 ± 3.9e-09 | 3.932e-07 ± 3.5e-09
x1 = 0.4991 | 4.975e-07 ± 4.3e-09 | 4.408e-07 ± 3.9e-09 | 3.926e-07 ± 3.5e-09
x1 = 0.5974 | 4.968e-07 ± 4.3e-09 | 4.401e-07 ± 3.8e-09 | 3.926e-07 ± 3.5e-09
x1 = 0.6992 | 4.982e-07 ± 4.3e-09 | 4.406e-07 ± 3.9e-09 | 3.939e-07 ± 3.5e-09
x1 = 0.7996 | 5.007e-07 ± 4.3e-09 | 4.419e-07 ± 3.9e-09 | 3.961e-07 ± 3.5e-09
x1 = 0.8981 | 5.055e-07 ± 4.3e-09 | 4.447e-07 ± 3.9e-09 | 3.993e-07 ± 3.6e-09
x1 = 0.9477 | 5.086e-07 ± 4.3e-09 | 4.465e-07 ± 3.9e-09 | 4.015e-07 ± 3.6e-09

CCC(C)Cl (stereo not drawn) [2-chlorobutane] + CCCCCCC
kinematic viscosity [m2/s], [2]
Conditions | 283.15 K | 298.15 K | 313.15 K
x1 = 0.0506 | 5.287e-07 ± 4.5e-09 | 4.649e-07 ± 4e-09 | 4.086e-07 ± 3.6e-09
x1 = 0.0989 | 5.334e-07 ± 4.5e-09 | 4.686e-07 ± 4.1e-09 | 4.121e-07 ± 3.6e-09
x1 = 0.2012 | 5.44e-07 ± 4.6e-09 | 4.78e-07 ± 4.1e-09 | 4.202e-07 ± 3.7e-09
x1 = 0.3016 | 5.558e-07 ± 4.7e-09 | 4.876e-07 ± 4.2e-09 | 4.283e-07 ± 3.8e-09
x1 = 0.3997 | 5.677e-07 ± 4.8e-09 | 4.978e-07 ± 4.3e-09 | 4.37e-07 ± 3.8e-09
x1 = 0.4984 | 5.812e-07 ± 4.9e-09 | 5.087e-07 ± 4.3e-09 | 4.461e-07 ± 3.9e-09
x1 = 0.5994 | 5.966e-07 ± 5e-09 | 5.206e-07 ± 4.4e-09 | 4.558e-07 ± 4e-09
x1 = 0.6994 | 6.128e-07 ± 5.1e-09 | 5.331e-07 ± 4.5e-09 | 4.652e-07 ± 4e-09
x1 = 0.7996 | 6.304e-07 ± 5.2e-09 | 5.467e-07 ± 4.6e-09 | 4.757e-07 ± 4.1e-09
x1 = 0.9006 | 6.496e-07 ± 5.4e-09 | 5.609e-07 ± 4.7e-09 | 4.866e-07 ± 4.2e-09
x1 = 0.9503 | 6.6e-07 ± 5.5e-09 | 5.684e-07 ± 4.8e-09 | 4.927e-07 ± 4.2e-09

CCC(C)CC [3-methylpentane]
[1]
Conditions | kinematic viscosity [m2/s]
283.15 K | 4.928e-07 ± 4.2e-09
298.15 K | 4.366e-07 ± 3.8e-09
313.15 K | 3.881e-07 ± 3.5e-09

CCC(C)CC [3-methylpentane] + CCCCCl
kinematic viscosity [m2/s], [2]
Conditions | 283.15 K | 298.15 K | 313.15 K
x1 = 0.0518 | 5.496e-07 ± 4.6e-09 | 4.734e-07 ± 4.1e-09 | 4.175e-07 ± 3.7e-09
x1 = 0.094 | 5.448e-07 ± 4.6e-09 | 4.704e-07 ± 4.1e-09 | 4.155e-07 ± 3.7e-09
x1 = 0.2038 | 5.326e-07 ± 4.5e-09 | 4.622e-07 ± 4e-09 | 4.088e-07 ± 3.6e-09
x1 = 0.304 | 5.228e-07 ± 4.5e-09 | 4.553e-07 ± 4e-09 | 4.036e-07 ± 3.6e-09
x1 = 0.4059 | 5.143e-07 ± 4.4e-09 | 4.5e-07 ± 3.9e-09 | 3.988e-07 ± 3.5e-09
x1 = 0.5021 | 5.075e-07 ± 4.3e-09 | 4.453e-07 ± 3.9e-09 | 3.952e-07 ± 3.5e-09
x1 = 0.5999 | 5.017e-07 ± 4.3e-09 | 4.411e-07 ± 3.9e-09 | 3.921e-07 ± 3.5e-09
x1 = 0.7043 | 4.97e-07 ± 4.3e-09 | 4.382e-07 ± 3.8e-09 | 3.896e-07 ± 3.5e-09
x1 = 0.8049 | 4.945e-07 ± 4.2e-09 | 4.365e-07 ± 3.8e-09 | 3.884e-07 ± 3.5e-09
x1 = 0.9038 | 4.928e-07 ± 4.2e-09 | 4.351e-07 ± 3.8e-09 | 3.879e-07 ± 3.5e-09
x1 = 0.9492 | 4.928e-07 ± 4.2e-09 | 4.355e-07 ± 3.8e-09 | 3.877e-07 ± 3.5e-09

CCCCCCC [heptane]
[1]
Conditions | kinematic viscosity [m2/s]
283.15 K | 6.697e-07 ± 5.5e-09
298.15 K | 5.754e-07 ± 4.8e-09
313.15 K | 4.986e-07 ± 4.3e-09

CCCCCC [hexane]
[1]
Conditions | kinematic viscosity [m2/s]
283.15 K | 5.125e-07 ± 4.4e-09
298.15 K | 4.493e-07 ± 3.9e-09
313.15 K | 4.039e-07 ± 3.6e-09
